Where only a bound is given, the exact number is not on record here.

In this assay the target is IgE-Tb / sFcεRIα-Y131A-AF488 (Homo sapiens, UniProt P01854, N146Q/N252Q). As to the kind of experiment: IgE-Tb / sFcεRIα-Y131A-AF488 FRET assay (protocol for examples 234 to 501). To be noted: examples 234 to 501: compound with IgE-Tb 30 minutes before sFcεRIα-Y131A-AF488, incubated 18 hours at room temperature; read-out: Y131A FRET IC50 range. The class given is binding. Put shortly: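 Read-out is the 520/490 nm emission ratio (337 nm excitation) after 18 h at room temperature, background subtracted, fitted four-parameter for IC50. Final reagents: 5 nM IgE-Tb, preincubated 30 min with compound (top typically 10 μM, 2% DMSO, 3-fold 10-point), plus 25 nM sFcεRIα-Y131A-AF488.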
IgE-Tb / sFcεRIα-Y131A-AF488, sequence (P01854 whole entry N146Q/N252Q): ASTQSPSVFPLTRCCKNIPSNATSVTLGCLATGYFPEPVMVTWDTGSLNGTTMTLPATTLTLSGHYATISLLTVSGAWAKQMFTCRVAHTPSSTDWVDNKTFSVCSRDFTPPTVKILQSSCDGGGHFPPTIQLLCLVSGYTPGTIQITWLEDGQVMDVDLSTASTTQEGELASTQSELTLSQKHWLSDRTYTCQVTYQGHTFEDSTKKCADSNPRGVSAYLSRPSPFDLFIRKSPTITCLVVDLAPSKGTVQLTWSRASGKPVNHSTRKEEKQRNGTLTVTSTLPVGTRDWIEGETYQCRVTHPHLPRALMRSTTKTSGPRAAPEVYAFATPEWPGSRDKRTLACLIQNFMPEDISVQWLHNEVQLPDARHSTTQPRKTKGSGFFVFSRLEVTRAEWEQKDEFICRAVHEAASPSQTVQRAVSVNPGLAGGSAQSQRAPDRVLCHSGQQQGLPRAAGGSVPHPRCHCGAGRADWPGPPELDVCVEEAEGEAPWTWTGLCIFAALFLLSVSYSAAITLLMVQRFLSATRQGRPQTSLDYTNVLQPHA
As to `Cn1nc(C(F)F)cc1Nc1nncn1[C@H]1CCc2sc(NC(=O)[C@H]3CC34CC4)c(C(=O)NC[C@H]3C[C@H](F)C3)c2C1` [Example 404, (5S)-5-[3-[[5-(Difluoromethyl)-2-methylpyrazol-3-yl]amino]-1,2,4-triazol-4-yl]-N-[trans-(3-fluorocyclobutyl)methyl]-2-[[(2S)-spiro[2.2]pentane-2-carbonyl]amino]-4,5,6,7-tetrahydro-1-benzothiophene-3-carboxamide], the IC50 is below 1000 nM.

As to `Cn1nc(C(F)F)cc1Nc1nncn1[C@H]1CCc2sc(NC(=O)[C@H]3CC34CC4)c(C(=O)N[C@H]3C[C@H](F)C3)c2C1` [Example 405, (5S)-5-[3-[[5-(Difluoromethyl)-2-methylpyrazol-3-yl]amino]-1,2,4-triazol-4-yl]-N-(trans-3-fluorocyclobutyl)-2-[[(2S)-spiro[2.2]pentane-2-carbonyl]amino]-4,5,6,7-tetrahydro-1-benzothiophene-3-carboxamide], the IC50 was below 1000 nM. The value for `Cn1nc(C(F)F)cc1Nc1nncn1[C@H]1CCc2sc(NC(=O)[C@H]3CC34CC4)c(C(=O)NC3CC(F)(F)C3)c2C1` [Example 406, (5S)—N-(3,3-Difluorocyclobutyl)-5-[3-[[5-(difluoromethyl)-2-methylpyrazol-3-yl]amino]-1,2,4-triazol-4-yl]-2-[[(2S)-spiro[2.2]pentane-2-carbonyl]amino]-4,5,6,7-tetrahydro-1-benzothiophene-3-carboxamide] was below 1000 nM; that for `Cn1nc(C(F)F)cc1Nc1nncn1[C@H]1CCc2sc(NC(=O)[C@H]3CC34CC4)c(C(=O)NCC3CC(F)(F)C3)c2C1` [Example 407, (5S)—N-[(3,3-Difluorocyclobutyl)methyl]-5-[3-[[5-(difluoromethyl)-2-methylpyrazol-3-yl]amino]-1,2,4-triazol-4-yl]-2-[[(2S)-spiro[2,2]pentane-2-carbonyl]amino]-4,5,6,7-tetrahydro-1-benzothiophene-3-carboxamide] was below 1000 nM.

For `Cn1nc(C(F)F)cc1Nc1nncn1[C@H]1CCc2sc(NC(=O)[C@H]3CC34CC4)c(C(=O)NC[C@H]3C[C@H]3F)c2C1` [Example 412, (5S)-5-[3-[[5-(Difluoromethyl)-2-methylpyrazol-3-yl]amino]-1,2,4-triazol-4-yl]-N-[[(1R,2R)-2-fluorocyclopropyl]methyl]-2-[[(2S)-spiro[2.2]pentane-2-carbonyl]amino]-4,5,6,7-tetrahydro-1-benzothiophene-3-carboxamide], the IC50 is below 1000 nM. For `Cn1nc(C(F)F)cc1Nc1nncn1[C@H]1CCc2sc(NC(=O)[C@H]3CC34CC4)c(C(=O)NC[C@H]3C[C@@H]3F)c2C1` [Example 413, (5S)-5-[3-[[5-(Difluoromethyl)-2-methylpyrazol-3-yl]amino]-1,2,4-triazo-4-yl]-N-[[(1R,2S)-2-fluorocyclopropyl]methyl]-2-[[(25)-spiro[2.2]pentane-2-carbonyl]amino]-4,5,6,7-tetrahydro-1-benzothiophene-3-carboxamide] the value was below 1000 nM. `Cn1nc(C(F)F)cc1Nc1nncn1[C@H]1CCc2sc(NC(=O)[C@H]3CC34CC4)c(C(=O)N[C@H]3CC34CC4)c2C1` [Example 414, (5S)-5-[3-[[5-(difluoromethyl)-2-methyl-pyrazol-3-yl]amino]-1,2,4-triazol-4-yl]-2-[[(2S)-spiro[2.2]pentane-2-carbonyl]amino]-N-[(25)-spiro[2.2]pentan-2-yl]-4,5,6,7-tetrahydrobenzothiophene-3-carboxamide]: the IC50 is below 1000 nM. The value for `Cn1nc(C(F)F)cc1Nc1nncn1[C@H]1CCc2sc(NC(=O)[C@H]3CC34CC4)c(C(=O)N[C@@H]3CC34CC4)c2C1` [Example 415, (5S)-5-[3-[[5-(difluoromethyl)-2-methyl-pyrazol-3-yl]amino]-1,2,4-triazol-4-yl]-2-[[(2S)-spiro[2.2]pentane-2-carbonyl]amino]-N-[(2R)-spiro[2.2]pentan-2-yl]-4,5,6,7-tetrahydrobenzothiophene-3-carboxamide] was below 1000 nM; that for `Cn1nc(C(F)F)cc1Nc1nncn1[C@H]1CCc2sc(NC(=O)[C@H]3CC34CC4)c(C(=O)NCC3CC3)c2C1` [Example 416, (5S)—N-(Cyclopropylmethyl)-5-[3-[[5-(difluoromethyl)-2-methyl-pyrazol-3-yl]amino]-1,2,4-triazol-4-yl]-2-[[(2S)-spiro[2.2]pentane-2-carbonyl]amino]-4,5,6,7-tetrahydrobenzothiophene-3-carboxamide] was below 1000 nM; that for `Cn1nc(C#N)cc1Nc1nncn1[C@H]1CCc2sc(NC(=O)C3CC3)c(C(=O)NCC3CC3)c2C1` [Example 418, (5S)-5-[3-[(5-Cyano-2-methyl-pyrazol-3-yl)amino]-1,2,4-triazol-4-yl]-2-(cyclopropanecarbonylamino)-N-(cyclopropylmethyl)-4,5,6,7-tetrahydrobenzothiophene-3-carboxamide] was below 1000 nM. With `O=C(NCC1CC1)c1c(NC(=O)C2CC2)sc2c1C[C@@H](n1cnnc1Nc1ccc3c(c1)OC(F)(F)O3)CC2` [Example 419, (5S)-2-(Cyclopropanecarbonylamino)-N-(cyclopropylmethyl)-5-[3-[(2,2-difluoro-1,3-benzodioxol-5-yl)amino]-1,2,4-triazol-4-yl]-4,5,6,7-tetrahydrobenzothiophene-3-carboxamide], the IC50 is below 1000 nM.

For `Cn1nc(C(F)F)cc1Nc1nncn1[C@H]1CCc2sc(NC(=O)[C@H]3CC34CC4)c(C(=O)NC[C@@H]3C[C@@H]3F)c2C1` [Example 420, (5S)-5-[3-[[5-(Difluoromethyl)-2-methyl-pyrazol-3-yl]amino]-1,2,4-triazol-4-yl]-N-[[(1S,2S)-2-fluorocyclopropyl]methyl]-2-[[(2S)-spiro[2.2]pentane-2-carbonyl]amino]-4,5,6,7-tetrahydrobenzothiophene-3-carboxamide], the half-inhibitory concentration (IC50) was below 1000 nM. `O=C(NCC1CC1)c1c(NC(=O)C2CC2)sc2c1C[C@@H](n1cnnc1Nc1ccc(C(F)F)nc1)CC2` [Example 423, (5S)-2-(cyclopropanecarbonylamino)-N-(cyclopropylmethyl)-5-[3-[[6-(difluoromethyl)-3-pyridyl]amino]-1,2,4-triazol-4-yl]-4,5,6,7-tetrahydrobenzothiophene-3-carboxamide]: the 50% inhibitory concentration (IC50) is below 1000 nM. `Cc1nc(F)ccc1Nc1nncn1[C@H]1CCc2sc(NC(=O)C3CC3)c(C(=O)NCC3CC3)c2C1` [Example 424, (5S)-2-(cyclopropanecarbonylamino)-N-(cyclopropylmethyl)-5-[3-[(6-fluoro-2-methyl-3-pyridyl)amino]-1,2,4-triazol-4-yl]-4,5,6,7-tetrahydrobenzothiophene-3-carboxamide]: the IC50 is below 1000 nM. The value for `Cn1nc(OC2CC2)cc1Nc1nncn1[C@H]1CCc2sc(NC(=O)[C@H]3C[C@@H]3F)c(C(=O)NCC3CC3)c2C1` [Example 425] was below 1000 nM; that for `Cn1nc(OCC(F)(F)F)cc1Nc1nncn1[C@H]1CCc2sc(NC(=O)[C@H]3C[C@@H]3F)c(C(=O)NCC3CC3)c2C1` [Example 426, (5S)—N-(cyclopropylmethyl)-2-[[(1R,2S)-2-fluorocyclopropanecarbonyl]amino]-5-[3-[[2-methyl-5-(2,2,2-trifluoroethoxy)pyrazol-3-yl]amino]-1,2,4-triazol-4-yl]-4,5,6,7-tetrahydrobenzothiophene-3-carboxamide] was below 1000 nM.

By IC50 is commonly meant the point on the concentration scale where inhibition reaches its midpoint.

The values above are taken from patent publication US12018021B2 (UCB Biopharma SRL, priority 2018, dated 2024).
